# Test results taken from patent US5756501A, “Saturated and unsaturated pyridazino[4,5-B] indolizines useful as antidementia agents” (American Home Products Corporation, priority 1996, dated 1998).
# Numbering of substitutions follows the chain as printed.
# How the values were obtained:
# Human m1 receptors = Human m1 receptors (Homo sapiens, UniProt P11229); assay: biochemical; assay type: binding
# [1] = quaternary ammonium compounds; cited from earlier work
# muscarinic M1 receptors [2] = molecular target: T1, muscarinic M1 receptors (Rattus norvegicus, UniProt P08482); assay: Tritiated pirenzepine ([^3 H]PZ) binding inhibition, rat brain cortex (M1 binding); conditions: [^3 H]PZ 0.5 nM, read-out: M1 Binding % Inhib. of [^3 H] Pz @ 10 μM
# T1 construct: The cortex of rat brains obtained from male Sprague-Dawley rats; from tissue; host or cells: rat brain cortex homogenate (male Sprague-Dawley)
# T1 sequence (P08482 1-460): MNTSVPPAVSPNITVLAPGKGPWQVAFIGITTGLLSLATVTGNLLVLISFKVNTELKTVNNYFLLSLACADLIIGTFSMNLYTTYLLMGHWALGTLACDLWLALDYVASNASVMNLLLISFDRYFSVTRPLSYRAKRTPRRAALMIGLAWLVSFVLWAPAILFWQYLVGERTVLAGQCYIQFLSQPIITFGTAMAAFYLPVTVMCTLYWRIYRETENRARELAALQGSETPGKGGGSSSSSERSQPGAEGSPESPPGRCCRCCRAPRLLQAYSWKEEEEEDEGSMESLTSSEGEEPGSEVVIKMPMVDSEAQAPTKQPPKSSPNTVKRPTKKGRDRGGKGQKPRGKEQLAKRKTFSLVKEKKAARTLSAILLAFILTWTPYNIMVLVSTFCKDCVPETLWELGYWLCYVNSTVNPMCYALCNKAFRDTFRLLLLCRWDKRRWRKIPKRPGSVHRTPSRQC
# Experimental: The cortex of rat brains obtained from male Sprague-Dawley rats (300 g) are homogenized using a hand-held teflon-coated pestle in 20 volumes of 0.32M sucrose. After centrifugation (747×g for 10 min at 4° C.), the resultant supernatant is decanted and recentrifuged (18677×g for 20 min at 4° C.). The resultant pellet is resuspended in the original volume of 0.32M sucrose and frozen. After thawing, the suspension is diluted (1:1 v/v) with 10 mM Na2 HPO4 /KH2 PO4 buffer (pH=7.4). [^3 H]PZ (0.5 nM, 0.04 μCi) is then incubated in multiple tubes with a 100 μl sample of the tissue suspension and 10 μl of a test compound solution (10 μM in water or ethanol) or vehicle (for control) in a sufficient quantity of the above phosphate buffer to give a total volume of 1 ml. One half of the tubes also contain 2 μM atropine sulfate which binds non-specifically with muscarinic receptors and provides for correcting the data for binding with other muscarinic receptors which may be present. After 60 minutes of incubation as 25° C. in the dark, the binding is terminated by vacuum filtration onto Whatman GF/B filters (pre-soaded for 60 minutes in 0.1% (w/v) polyethylenimine to reduce non-specific binding). After three washes with the phosphate buffer (4° C., 3 ml/wash) the vacuum is allowed to continue for two minutes before the filter-trapped radioactivity is assayed by liquid scintillation spectroscopy. Specific [^3 H]PZ binding is defined as total binding minus binding in the presence of 2 μM atropine sulfate. Data are pesented in Table I below as the percent inhibition ([control-test]/control×100%) of [^3 H]PZ binding by the test or reference compound.
# m1 receptors = conditions: cited from earlier work
# muscarinic M1 receptors [3] = molecular target: T1, muscarinic M1 receptors; assay: Tritiated pirenzepine ([^3 H]PZ) binding inhibition, rat brain cortex (M1 binding)
# muscarinic M2 receptors [4] = molecular target: muscarinic M2 receptors (Rattus norvegicus, UniProt P10980); assay: biochemical; assay type: binding
# muscarinic M2 receptors [5] = assay: biochemical; assay type: binding, rat; conditions: selectivity M1 versus M2
# [6] = molecular target: T2, M1 acetylcholine receptors (Homo sapiens, UniProt P11229); assay: cell-based; conditions: CHO, 1 h; read-out: PI Turnover % above baseline
# T2 sequence (P11229 1-460): T1 sequence (P08482 1-460) with V5A, S254T, S309P, K320R, G337A, V413I
# Alzheimer's Disease = conditions: cited from earlier work; for improvement in memory: patients with mild to moderate Alzheimer's Disease
# [7] = in vivo; cited from earlier work
# Human m1 receptors, sequence (P11229 whole entry): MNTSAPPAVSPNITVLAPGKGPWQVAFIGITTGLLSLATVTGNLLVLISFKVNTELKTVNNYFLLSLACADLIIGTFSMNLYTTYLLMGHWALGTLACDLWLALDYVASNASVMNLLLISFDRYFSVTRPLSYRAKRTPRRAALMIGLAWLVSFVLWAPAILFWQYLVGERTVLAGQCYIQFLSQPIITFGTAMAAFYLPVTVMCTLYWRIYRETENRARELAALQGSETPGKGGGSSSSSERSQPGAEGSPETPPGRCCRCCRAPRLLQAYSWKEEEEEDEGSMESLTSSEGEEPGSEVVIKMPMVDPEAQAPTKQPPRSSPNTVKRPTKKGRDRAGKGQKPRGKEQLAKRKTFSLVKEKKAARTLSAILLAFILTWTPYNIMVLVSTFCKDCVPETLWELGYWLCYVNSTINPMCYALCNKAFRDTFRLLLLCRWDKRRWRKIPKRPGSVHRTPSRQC
# muscarinic M2 receptors (Rattus norvegicus, UniProt P10980), sequence (P10980 whole entry): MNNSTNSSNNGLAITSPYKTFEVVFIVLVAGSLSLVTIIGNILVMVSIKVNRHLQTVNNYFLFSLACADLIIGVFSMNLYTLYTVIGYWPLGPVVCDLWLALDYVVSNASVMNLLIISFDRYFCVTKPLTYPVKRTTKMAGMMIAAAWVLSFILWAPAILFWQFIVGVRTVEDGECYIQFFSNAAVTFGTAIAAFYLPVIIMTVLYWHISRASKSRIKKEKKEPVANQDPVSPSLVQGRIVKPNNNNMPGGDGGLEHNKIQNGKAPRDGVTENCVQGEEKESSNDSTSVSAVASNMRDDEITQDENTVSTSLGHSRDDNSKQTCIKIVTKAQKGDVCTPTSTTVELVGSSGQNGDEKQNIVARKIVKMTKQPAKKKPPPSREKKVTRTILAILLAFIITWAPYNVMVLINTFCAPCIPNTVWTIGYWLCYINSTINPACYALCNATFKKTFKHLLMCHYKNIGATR
smiles,measurement,setting,value
"Cc1nnc(NCCCN2CC3CCC(CC3)C2)c2cc3n(c12)CCCC3 [Example 10, N-[3-(3-Azabicyclo[3.2.2]non-3-yl)propyl]-6,7,8,9-tetrahydro-4-(methyl)pyridazino[4,5-b]indolizin-1-amine]",Ki,Human m1 receptors,9 nM
C[N+](C)(C)CCOC(N)=O [carbachol],ability to cross the blood brain barrier,[1],not able to cross the blood brain barrier
"c1ccc(COCc2nnc(NCCN3CCN(c4ncccn4)CC3)c3cc4ccccn4c23)cc1 [Example 6, 4-[(Phenylmethoxy)methyl]-N-[2-[4-(2-pyrimidinyl)-1-piperazinyl]ethyl]pyridazino[4,5-b]indolizin-1-amine]",inhibition at 10 µM,muscarinic M1 receptors [2],98.3%
"COCc1nnc(NCCCCN2CC3CCC(CC3)C2)c2cc3ccccn3c12 [Example 5, N-[4-(3-Azabicyclo[3.2.2]non-3-yl)butyl]-4-(methoxymethyl)pyridazino[4.5-b]indolizin-1-amine]",inhibition at 10 µM,muscarinic M1 receptors [2],100%
C[C@@H]1O[C@H](C[N+](C)(C)C)C[C@H]1O [muscarine],activation of m1 receptors,m1 receptors,able to fully activate m1 receptors
same,ability to cross the blood brain barrier,[1],not able to cross the blood brain barrier
"CCN(CC)CCCNCc1nnc(NCCCN(CC)CC)c2cc3ccccn3c12 [Example 7, N,N-Diethyl-N'-[4-[[[3-(diethylamino)propyl]amino]methyl]-pyridazino[4.5-b]indolizin-1-yl]-1,3-propanediamine]",inhibition at 10 µM,muscarinic M1 receptors [2],99.3%
"CCN(CC)CCCNc1nnc(C)c2c1cc1n2CCCC1 [Example 8, N,N-Diethyl-N'-[6,7,8,9-tetrahydro-4-(methyl)-pyridazino[4,5-b]indolizin-1-yl]-1.3-propanediamine]",inhibition at 10 µM,muscarinic M1 receptors [2],98%
"Cc1nnc(NCCCCN2CC3CCC(CC3)C2)c2cc3n(c12)CCCC3 [Example 11, N-[4-(3-Azabicyclo[3.2.2]non-3-yl)butyl]-6,7,8,9-tetrahydro-4-methylpyridazino[4,5-b]indolizin-1-amine]",inhibition at 1 µM,"muscarinic M1 receptors [3]; 1 μM, rat cortex, [^3 H]PZ 0.5 nM, read-out: M1 Binding % Inhib. of [^3 H] Pz @ 1 μM",101%
same,Ki,"muscarinic M1 receptors [3]; Table II, rat brain M1",1.34 nM
same,Ki,muscarinic M2 receptors [4],13.4 nM
same,M2/M1 Ki ratio,muscarinic M2 receptors [5],10
same,Emax,[6],102%
"c1ccc(COCc2nnc(NCCCCN3CCOCC3)c3cc4n(c23)CCCC4)cc1 [Example 15, 6,7,8,9,-Tetrahydro-N-[4-(4-morpholinyl)butyl]-4-[(phenylmethoxy)methyl]-pyradazino[4,5-b]indolizin-1-amine]",inhibition at 10 µM,muscarinic M1 receptors [2],100%
"COCc1nnc(NCCCCN2CC3CCC(CC3)C2)c2cc3n(c12)CCCC3 [Example 14, N-[4-(3-Azabicyclo[3.2.2]non-3-yl)butyl]-6,7,8,9-tetrahydro-4-(methoxymethyl)-pyridazino[4,5-b]indolizin-1-amine]",inhibition at 10 µM,muscarinic M1 receptors [2],101%
same,Emax,[6],73%
COC(=O)C1=CCCN(C)C1 [arecoline],improvement in memory,Alzheimer's Disease,memory improvement in patients with mild to moderate Alzheimer's Disease
same,half-life,[7],short half-life
"CCN(CC)CCCNc1nnc(COC)c2c1cc1ccccn12 [Example 3, N,N-Diethyl-N'-[4-(methoxymethyl)pyridazino[4,5-b]indolizin-1-yl]-1.3-propanediamine]",inhibition at 10 µM,muscarinic M1 receptors [2],98.4%
"FC(F)(F)c1nnc(NCCCCN2CC3CCC(CC3)C2)c2cc3n(c12)CCCC3 [Example 12, N-[4-(3-Azabicyclo[3.2.2]non-3-yl)butyl]-6,7,8,9-tetrahydro-4-(trifluoromethyl)-pyridazino[4,5-b]indolizin-1-amine]",Ki,Human m1 receptors,206 nM
"FC(F)(F)c1nnc(NCCCCN2CC3CCC(CC3)C2)c2cc3ccccn3c12 [Example 1, N-[4-(3-Azabicyclo[3.2.2]non-3-yl)butyl]-4-(trifluoromethyl)pyridazino[4,5b]indolizine-1-amine]",Ki,Human m1 receptors,240 nM
Cc1nnc(NCCN2CC3CCC(CC3)C2)c2cc3n(c12)CCCC3 [Example 9],Ki,Human m1 receptors,80 nM
"COCc1nnc(NCCCN2CC3CCC(CC3)C2)c2cc3ccccn3c12 [Example 4, N-[3-(3-Azabicyclo[3.2.2]non-3-yl)propyl]-4-(methoxymethyl)pyridazino[4.5-b]indolizin-1-amine]",inhibition at 10 µM,muscarinic M1 receptors [2],100%
FC(F)(F)c1nnc(NCCCN2CC3CCC(CC3)C2)c2cc3ccccn3c12 [Example 2],Ki,Human m1 receptors,140 nM
"CCN(CC)CCCNc1nnc(COC)c2c1cc1n2CCCC1 [Example 13, N,N-Diethyl-N'-[6,7,8,9-tetrahydro-4-(methoxymethyl)-pyridazino[4,5-b]indolizin-1-yl]-1.3-propanediamine]",inhibition at 10 µM,muscarinic M1 receptors [2],109%
Nc1c2c(nc3ccccc13)CCCC2 [tacrine],adverse side effects,Alzheimer's Disease; higher doses,adverse side effects especially at the higher doses
same,improvement in memory,Alzheimer's Disease,improvement in memory can be shown in patients with mild to moderate Alzheimer's Disease
